Laboratory results published in patent US20070166710A1, “Methods for inhibiting adipogenesis and for treating type 2 diabetes” (priority 2003, published 2007).
Substitutions are numbered along the chain they refer to.

Experiments:
[1] = biological target: T1, Foxa-2 (transfected) (UniProt P32182); experiment: cell_activity
T1 sequence: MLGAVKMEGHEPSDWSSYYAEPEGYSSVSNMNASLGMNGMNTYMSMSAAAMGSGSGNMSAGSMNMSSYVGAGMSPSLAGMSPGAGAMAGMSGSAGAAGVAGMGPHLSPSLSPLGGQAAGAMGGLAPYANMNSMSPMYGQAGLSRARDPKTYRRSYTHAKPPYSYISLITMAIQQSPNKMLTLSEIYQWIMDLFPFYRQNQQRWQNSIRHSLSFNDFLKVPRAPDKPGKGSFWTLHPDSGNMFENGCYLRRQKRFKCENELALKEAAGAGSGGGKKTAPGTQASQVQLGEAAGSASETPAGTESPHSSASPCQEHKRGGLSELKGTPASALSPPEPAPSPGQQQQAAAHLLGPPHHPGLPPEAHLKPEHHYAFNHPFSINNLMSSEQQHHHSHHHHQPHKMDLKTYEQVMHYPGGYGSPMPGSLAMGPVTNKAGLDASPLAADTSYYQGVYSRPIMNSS

[2] = test system: Foxa-2; experiment: Immunofluorescence of subcellular distribution of endogenous Foxa-2 in HepG2 cells; assay type: cell-based; details: inhibitor in the presence of insulin (50 nM)
Description: Immunofluorescence microscopy. Cells were fixed for 30 minutes at room temperature with 2% paraformaldehyde. For immunofluorescent detection of Foxa-1 or Foxa-2, fixed cells were incubated with respective polyclonal antibodies (1:100) (Ruiz i Altaba et al. (1993) Mech. Dev. 44: 91-108) overnight at 4° C. After washing, the cells were treated with anti rabbit IgG secondary antibody linked to Alexa Fluor 488 (Molecular Probes). Immunofluorescent staining was visualized using laser-scanning micrsocopy. To determine whether Akt-induced phosporylation of Foxa-2 has an effect on the subcellular distribution of this transcription factor, the following experiment was performed. HepG2 cells were grown to 60% confluency and endogenous Foxa-1 and Foxa-2 proteins were visualized by immunofluorescence after staining with anti Foxa-1 and Foxa-2 antibodies. Cells were either examined in the absence or presence of insulin (50 nM) and/or Ly294002 or PD98059, and after transfection with either Akt1 or Akt2 expression vectors (FIG. 5B). […] Treatment of cells with MAPKK1 inhibitor PD98059 had no effect on insulin stimulated nuclear exclusion of Foxa-2. The subcellular distribution of Foxa-2 in cells that were stimulated with insulin and expressed a dominant negative form of Akt (Akt[…]) were resistant to nuclear exclusion. […]

[3] = test system: Pepck, G6pc and Igfbp-1; experiment: mRNA levels of Foxa-2 target genes in primary hepatocytes (RT-PCR); assay type: cell-based; details: inhibitor together with insulin
Description: FIGS. 10a-d depict the effect of insulin on Foxa-2 activity. FIG. 10a is a bar graph depicting relative Foxa-2 activity in HepG2 cells transfected with an expression vector for Foxa-2 and […]-Luc (gray bars) or p6xCdx-TkLuc (black bars). Cells were treated with insulin alone or in the presence of Ly294002 or PD98059. FIG. 10b is a bar graph depicting relative Foxa-2 activity in HepG2 cells transfected with p6xCdx-TkLuc and treated with insulin alone or in the presence of Ly294002 or PD98059. […] FIG. 10d is a bar graph depicting relative Foxa-2 activity in HepG2 cells transfected with an expression vector for Foxa-1, Foxa-2, Akt or Akt[…] alone or in combination, using p6xCdx-TkLuc as reporter gene. In all experiments luciferase activity was normalized to β-Gal activity. […] Levels of mRNA were analyzed to determine whether inhibition of Foxa-2 target gene expression by insulin is controlled at a transcriptional or posttranscriptional level. The mRNA levels of Pepck, G6pc and Igfbp-1 in primary hepatocytes that were cultured either in the presence or absence of insulin, PI3-kinase or MAPKK1 inhibitors were measured.

[4] = test system: Foxa-2 activity; experiment: Transactivation assay, HepG2 cells transfected with Foxa-2 and pPepck-Luc or p6xCdx-TkLuc; assay type: cell-based, rat; details: coincubation, inhibitor 10 μM, insulin 100 nM
Description: Transfections and Transactivation assay. HepG2 cells were grown to 60-70% confluence in a 24-well dish and transfected with 50 ng of each reporter gene (p6xCdx-TkLuc or pPEPCK-Luc), pCMV-β-Gal as internal reference and the expression vectors for wildtype or mutant Foxa-1 and Foxa-2 and human Akt1/Akt2 using the transfection reagent Fugene6 (Roche). Cells were grown for 48 hours and luciferase activity was measured using the Luciferase Detection System (Promega). Luciferase was normalized for transfection efficiency by β-galactosidase activity.
To analyze whether Foxa-2 activity is regulated by insulin, HepG2 cells were transfected with a Foxa-2 expression vector and either plasmid pPepck-Luc or p6xCdx-TkLuc that contain a 621 bp promoter framnent of the human PEPCK gene or six Foxa-2 binding sites of the Cdx-2 gene upstream of a minimal promoter and the luciferase gene, respectively.

[5] = biological target: T2, GST-Foxa-2 (recombinant, from E. coli BL21, pGEX-4T2) (UniProt P32182)
T2 sequence: T1 sequence

[6] = biological target: T3, GST-Foxa-2T156A (recombinant, from E. coli BL21, pGEX-4T2) (UniProt P32182)
T3 sequence: T1 sequence with T156A

[7] = test system: Foxa-2 expression; experiment: Foxa-2 expression in primary adipocytes from lean wildtype C57B6 mice, semiquantitative RT-PCR; assay type: cell-based; details: 60 hours; leptin 100 ng/ml, TNF-α 5 ng/ml, adiponectin 500 ng/ml, glucagon 100 nM, glucose 20 mmol/L
Description: (§1) Total RNA was extracted from cells and EBs using Trizol following manufacturer's instructions (Life Technologies, Inc.). […] The cDNAs provided templates for polymerase chain reactions (PCRs) using specific primers at annealing temperatures ranging between 60 and 65° C. in the presence of dNTPs, [α^-32P]dCTP, and Taq DNA polymerase. […] Primary adipocytes were isolated as described by Rodbell (1964) J. Biol. Chem. 239:375-380. […] (1995) J. Cell. Biochem. 58:435-463. The reaction was stopped by spinning through dinonyl […] oil and the radioactivity quantified by scintillation counting. […] (1995) Am. J. Physiol. 268:[…]-[…]. Fatty acid de novo synthesis was analyzed by saponification of total lipids as described by […] et al. (1978) J. […] Incorporation into lipid glycerol was calculated by subtracting fatty acid radioactive label from total lipid radioactive label. Primary adipocytes were isolated from lean wildtype C57B6 mice and cultured in MEM medium (control) or in the presence of insulin (100 nM; 24 hours and 60 hours, respectively) or rosiglitazone (50 μM), WY14,643 (100 μM), dexametason (1 μM), leptin (100 ng/ml), TNF-α (5 ng/ml), adiponectin (500 ng/ml) and glucagons (100 nM) for 60 hours. Gene expression was measured by semiquantitative RT-PCR. Steady state mRNA levels of Hprt were used as a control and indicate that each lane contains similar amounts of mRNA. Reactions were also assayed in the absence of reverse transcriptase, showing that mRNA was not contaminated with genomic DNA.

[8] = test system: Foxa-2 expression; experiment: Foxa-2 expression in primary adipocytes from ob/ob mice, semiquantitative RT-PCR; assay type: cell-based; details: 60 hours
Description: as §1, with “ob/ob” for “lean wildtype C57B6”, “μM;” for “nM;”, “dexamethason” for “dexametason”, “TNF-α,” for “TNF-α”, “rnRNA.” for “mRNA.”

[9] = test system: Foxa-2; experiment: Nuclear Foxa-2 in perfused livers, immunoblotting; assay type: in vivo, mice; details: liver perfusion experiments

6xCdx-TkLuc (six Foxa-2 sites of the Cdx-2 gene)
activity (fold activation) ([1]; HepG2, decreased by insulin or Akt): 5

COc1cccc(-c2cc(=O)c3ccccc3o2)c1N [PD98059, reference compound]
subcellular localization of endogenous Foxa-2 / insulin stimulated nuclear exclusion [2]: no effect | mRNA levels of Pepck, G6pc and Igfbp-1 [3]: significantly reduced | insulin mediated decrease of Foxa-2 activity [4]: did not influence

HA-Akt (human Akt1 fused to an N-terminal HA-tag, expressed from pCMV-HA-Akt)
phosphorylation in an in vitro kinase assay ([gamma-32P]-ATP, autoradiography) [5]: wildtype Foxa-2 was phosphorylated by either Akt or myrAkt | phosphorylation in an in vitro kinase assay ([gamma-32P]-ATP, autoradiography) [6]: no phosphorylation could be observed using Foxa-2T156A protein as substrate

IL6: factor with effects on adipocyte differentiation and metabolism
De novo expression of Foxa-2 [7]: could not be induced | Foxa-2 expression [8]: unable to raise

PEPCK promoter (621 bp) luciferase reporter
activity (fold activation) ([1]; HepG2, about 6-fold in FIG. 11c): 5

Pref-1 promoter (1.3 kb) luciferase reporter
activity (fold activation) ([1]; 3T3-L1 luciferase reporter): 6

Pref-1 promoter reporter, upstream Foxa element deleted
activity (% reduction of activity) ([1]; 3T3-L1 luciferase reporter): 50

TNF-α
De novo expression of Foxa-2 [7]: could not be induced | Foxa-2 expression [8]: unable to raise

constitutively active Akt, HA-tagged (pCMV-HA-myrAkt)
phosphorylation in an in vitro kinase assay ([gamma-32P]-ATP, autoradiography) [5]: wildtype Foxa-2 was phosphorylated by either Akt or myrAkt | phosphorylation in an in vitro kinase assay ([gamma-32P]-ATP, autoradiography) [6]: no phosphorylation could be observed using Foxa-2T156A protein as substrate

glucagon: hormone tested on Foxa-2 expression and nuclear localization
Foxa-2 nuclear localization [9]: does not affect | De novo expression of Foxa-2 [7]: could not be induced | Foxa-2 expression [8]: unable to raise

leptin: factor with effects on adipocyte differentiation and metabolism
De novo expression of Foxa-2 [7]: could not be induced | Foxa-2 expression [8]: unable to raise

B1: adiponectin: factor with effects on adipocyte differentiation and metabolism (protein, UniProt Q15848 19-244, looked up)
Adiponectin: ETTTQGPGVLLPLPKGACTGWMAGIPGHPGHNGAPGRDGRDGTPGEKGEKGDPGLIGPKGDIGETGVPGAEGPRGFPGIQGRKGEPGEGAYVYRSAFSVGLETYVTIPNMPIRFTKIFYNQQNHYDGSTGKFHCNIPGLYYFAYHITVYMKDVKVSLFKKDKAMLFTYDQYQENNVDQASGSVLLHLEVGDQVWLQVYGEGERNGLYADNDNDSTFTGFLLYHDTN
De novo expression of Foxa-2 [7]: could not be induced | Foxa-2 expression [8]: unable to raise
